Assay results: US9550796B2, “Pyrrolopyrrolone derivatives and their use as BET inhibitors” (NOVARTIS AG, priority 2013, dated 2017)

Experiments:
BRD2 = BRD2 (Homo sapiens (Human), UniProt P25440); assay: TR-FRET in-vitro binding assay for BRD2; conditions: 45 nM His-Brd2(60-472), acetyl-histone H4 (AcK 5, 8, 12, 16) peptide
Procedure, shortened: (§1)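 Eight-point compound dilutions, delivered in 90% DMSO, were tested in a 13.55 μL final reaction. Reactions ran 35 minutes at 30° C before TR-FRET measurement.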

THP-1 = assay: Cell growth inhibition assay (CellTiter-Glo), THP-1; type: cell-based, human; conditions: THP-1 cells, 4 days; for GI50: Homo sapiens, 96 h, half-maximal growth inhibition; for THP-1 TGI: total growth inhibition
Procedure, shortened: (§2)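 Cells were exposed 4 days at 37 °C, 5% CO2 to 3-fold serial dilutions starting at 10 μM (0.1% DMSO vehicle). Viability was measured as ATP by CellTiter-Glo luminescence, corrected for background and a day-0 plate. IC50 and TGI were derived by four-parameter fitting.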

BRD3 = BRD3 (Homo sapiens (Human), UniProt Q15059); assay: TR-FRET in-vitro binding assay for BRD3; conditions: 45 nM His-Brd3(20-477), acetyl-histone H4 (AcK 5, 8, 12, 16) peptide
Procedure, shortened: as §1

CREBBP = CREBBP (Homo sapiens (Human), UniProt Q92793); assay: AlphaScreen in-vitro binding assay for CREBBP; conditions: 324 nM His-CREBBP (1081-1197), acetyl-histone H4 (AcK 5, 8, 12) peptide
Procedure, shortened: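 IC50 values were derived by non-linear regression of percent inhibition across 8 compound concentrations. Protein was His-tagged CREBBP bromodomain (1081-1197), peptide acetyl-histone H4 (AcK 5, 8, 12), in HEPES pH 7.5 buffer. Read-out was AlphaScreen with Ni-chelate acceptor and streptavidin donor beads, 35 min at 30° C then 60 min at RT.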

MV-4-11 = assay: Cell growth inhibition assay (CellTiter-Glo), MV-4-11; type: cell-based, human; conditions: MV-4-11 cells, 4 days; for GI50: Homo sapiens, MV4-11, 96 h, half-maximal growth inhibition; for MV-4-11 TGI: total growth inhibition
Procedure, shortened: as §2

BRD4 = BRD4 (Homo sapiens (Human), UniProt O60885); assay: TR-FRET in-vitro binding assay for BRD4; conditions: 45 nM His-Brd4(44-477), acetyl-histone H4 (AcK 5, 8, 12, 16) peptide
Procedure, shortened: as §1

K-562 = assay: Cell growth inhibition assay (CellTiter-Glo), K-562; type: cell-based, human; conditions: K-562 cells, 4 days; for GI50: Homo sapiens, K562, 96 h, half-maximal growth inhibition; for K-562 TGI: total growth inhibition
Procedure, shortened: as §2

BRD3, sequence (Q15059 20-477): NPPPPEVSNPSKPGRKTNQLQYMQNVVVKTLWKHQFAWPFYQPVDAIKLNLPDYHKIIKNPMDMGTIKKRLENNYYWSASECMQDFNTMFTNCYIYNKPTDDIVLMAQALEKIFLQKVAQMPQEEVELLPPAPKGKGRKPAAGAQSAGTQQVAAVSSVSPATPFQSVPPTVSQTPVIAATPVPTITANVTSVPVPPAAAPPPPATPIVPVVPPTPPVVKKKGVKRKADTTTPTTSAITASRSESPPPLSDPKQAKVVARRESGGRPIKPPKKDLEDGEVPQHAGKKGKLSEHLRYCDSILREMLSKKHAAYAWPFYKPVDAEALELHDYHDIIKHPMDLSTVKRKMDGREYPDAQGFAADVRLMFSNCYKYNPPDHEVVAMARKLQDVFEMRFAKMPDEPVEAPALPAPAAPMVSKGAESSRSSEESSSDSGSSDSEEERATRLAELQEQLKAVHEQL
CREBBP, sequence (Q92793 1081-1197): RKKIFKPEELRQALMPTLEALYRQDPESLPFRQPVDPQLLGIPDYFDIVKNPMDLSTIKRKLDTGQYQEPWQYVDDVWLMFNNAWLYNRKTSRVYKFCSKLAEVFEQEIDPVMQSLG
BRD2, sequence (P25440 60-472): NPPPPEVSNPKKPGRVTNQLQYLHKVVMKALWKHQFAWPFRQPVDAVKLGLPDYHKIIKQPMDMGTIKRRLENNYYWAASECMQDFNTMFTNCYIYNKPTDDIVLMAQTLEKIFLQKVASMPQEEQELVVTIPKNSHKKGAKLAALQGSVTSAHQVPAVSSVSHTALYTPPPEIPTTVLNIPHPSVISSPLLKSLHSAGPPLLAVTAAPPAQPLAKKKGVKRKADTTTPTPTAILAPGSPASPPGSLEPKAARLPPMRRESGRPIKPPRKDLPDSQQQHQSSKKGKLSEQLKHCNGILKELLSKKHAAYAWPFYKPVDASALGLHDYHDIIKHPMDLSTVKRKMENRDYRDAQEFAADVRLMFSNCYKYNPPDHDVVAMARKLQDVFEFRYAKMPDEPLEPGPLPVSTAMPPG

SMILES	IC50 (BRD2)	GI50 (THP-1)	THP-1 TGI (THP-1)	IC50 (BRD3)	IC50 (CREBBP)	GI50 (MV-4-11)	MV-4-11 TGI (MV-4-11)	IC50 (BRD4)	GI50 (K-562)	K-562 TGI (K-562)
CC(=O)Nc1cn(C)c2c1C(=O)N(c1cc(C)c3nnn(C)c3n1)C2c1ccc(Cl)cc1 (stereo not drawn) [Example 96, N-(6-(4-chlorophenyl)-5-(3,7-dimethyl-3H-[1,2,3]triazolo[4,5-b]pyridin-5-yl)-1-methyl-4-oxo-1,4,5,6-tetrahydropyrrolo[3,4-b]pyrrol-3-yl)acetamide]	36 nM	11.2 nM	21.25 nM	17 nM	> 37000 nM	10.9 nM	21.2 nM	16 nM	32.8 nM	>10000 nM
CCOC(=O)Nc1cn(C)c2c1C(=O)N(c1cc(C)c3nnn(C)c3n1)C2c1ccc(Cl)cc1 (stereo not drawn) [Example 97, Ethyl (6-(4-chlorophenyl)-5-(3,7-dimethyl-3H-[1,2,3]triazolo[4,5-b]pyridin-5-yl)-1-methyl-4-oxo-1,4,5,6-tetrahydropyrrolo[3,4-b]pyrrol-3-yl)carbamate]	15 nM	17.9 nM	33.45 nM	< 11 nM	> 37000 nM	13.7 nM	24.95 nM	35 nM	48.7 nM	>10000 nM
CNC(=O)c1cn(C)c2c1C(=O)N(c1cc(C)c3nnc(C)n3c1)C2c1ccc(Cl)cc1 (stereo not drawn) [Example 99, 6-(4-chlorophenyl)-5-(3,8-dimethyl-[1,2,4]triazolo[4,3-a]pyridin-6-yl)-N,1-dimethyl-4-oxo-1,4,5,6-tetrahydropyrrolo[3,4-b]pyrrole-3-carboxamide]	16 nM	27.8 nM	96 nM	13 nM	> 37000 nM	13.6 nM	38.3 nM	< 11 nM	138 nM	>10000 nM
Cc1cc(N2C(=O)c3c(C(=O)N(C)C)cn(C)c3C2c2ccc(Cl)cc2)cn2c(C)nnc12 (stereo not drawn) [Example 100, 6-(4-chlorophenyl)-5-(3,8-dimethyl-[1,2,4]triazolo[4,3-a]pyridin-6-yl)-N,N,1-trimethyl-4-oxo-1,4,5,6-tetrahydropyrrolo[3,4-b]pyrrole-3-carboxamide]	40 nM	518 nM	2135 nM	47 nM	> 37000 nM	128 nM	368.5 nM	30 nM	2040 nM	>10000 nM
Cc1cc(N2C(=O)c3c(C(N)=O)cn(C)c3C2c2ccc(Cl)cc2)cn2c(C)nnc12 (stereo not drawn) [Example 101, 6-(4-chlorophenyl)-5-(3,8-dimethyl-[1,2,4]triazolo[4,3-a]pyridin-6-yl)-1-methyl-4-oxo-1,4,5,6-tetrahydropyrrolo[3,4-b]pyrrole-3-carboxamide]	54 nM	150 nM	450.5 nM	42 nM	30600 nM	57.4 nM	160.5 nM	41 nM	1300 nM	>10000 nM
Cc1cc(N2C(=O)c3c(NC(=O)OC(C)(C)C)cn(C)c3C2c2ccc(Cl)cc2)cn2c(C)nnc12 (stereo not drawn) [Example 102, Tert-butyl (6-(4-chlorophenyl)-5-(3,8-dimethyl-[1,2,4]triazolo[4,3-a]pyridin-6-yl)-1-methyl-4-oxo-1,4,5,6-tetrahydropyrrolo[3,4-b]pyrrol-3-yl)carbamate]	44 nM	53.3 nM	118 nM	34 nM	3200 nM	37.3 nM	90.4 nM	32 nM	185 nM	>10000 nM
